Measured values: US20230348459A1, “PYRROLIDINE COMPOUND AND USE THEREOF” (SIMCERE PHARMACEUTICAL CO., LTD., priority 2020, published 2023)

Legend:
[1] = Plasma protein binding rate, equilibrium dialysis, dog plasma; type: in vitro ADME; conditions: pH 7.4, Beagle dog plasma, 6 hours dialysis
Procedure: The protein binding rate of the compounds of the present invention in the plasma of five species (human, monkey, dog, rat and mouse) was determined by the following test method.
• 1. Human plasma (BioIVT), beagle dog plasma (BioIVT), SD rat plasma (BioIVT), CD-1 mouse plasma (BioIVT); • 2. 96-well equilibrium dialysis plate (HTDialysis LLC, Gales Ferry, CT, HTD96B), equilibrium dialysis membrane (MWCO 12-14 K, #1101); • 3. Positive control compound warfarin; • 4. ABI QTrap 5500 liquid chromatography-mass spectrometry.
1. Preparation of a buffer with a concentration of 100 mM sodium phosphate and 150 mM NaCl: an alkaline solution with a concentration of 14.2 g/L Na2HPO4 and 8.77 g/L NaCl was prepared with ultrapure water, and an acidic solution with a concentration of 12.0 g/L NaH2PO4 and 8.77 g/L NaCl was prepared with ultrapure water. The alkaline solution was titrated with the acidic solution to pH 7.4 to prepare a buffer with a concentration of 100 mM sodium phosphate and 150 mM NaCl.
2. Preparation of dialysis membrane: the dialysis membrane was soaked in ultrapure water for 60 minutes to separate the membrane into two pieces, then soaked in 20% ethanol for 20 minutes, and finally soaked in the buffer used for dialysis for 20 minutes.
3. Preparation of plasma: the frozen plasma was quickly thawed at room temperature, then the plasma was centrifuged at 3,220 g at 4° C. for 10 min to remove clots, and the supernatant was collected into a new centrifuge tube. The pH of the plasma was measured and recorded, and the plasma with pH of 7-8 was used.
3. Preparation of compound-containing plasma samples: 10 mM stock solution of compounds of the present invention or positive control compounds were diluted with DMSO to obtain 200 µM working solution. […]
The peak areas of the compounds on the buffer side and the plasma side were determined. […]
All the data was calculated by the Microsoft Excel software. The plasma protein binding rate values of the compounds of the present invention were calculated.

[2] = tested on: MCF7 cells; assay: Inhibition of the proliferation of MCF7 cells (CellTiter-Glo); type: cell-based; conditions: Homo sapiens, MCF7, 168 h; 7 days treatment; read-out: MCF-7 cell proliferation inhibition IC50
Procedure: The purpose of the experiment is to determine the inhibitory effect of the compounds of the present invention on the proliferation of MCF7 cells in vitro, and to evaluate the activity of the compounds according to IC50 and maximum inhibitory efficiency.
MCF7 cells (ATCC, HTB-22) were cultured in DMEM (Gibco, 11995-065) complete medium containing 10% fetal bovine serum. On the first day of the experiment, MCF7 cells were inoculated in a 384-well plate at a density of 500 cells/well using the complete medium, and cultured in a 37° C., 5% CO2 cell incubator overnight. The next day, the compounds to be tested were added for drug treatment, and the compound solution with a stock concentration of 10 mM was diluted with Echo550 (Labcyte Inc.) and transferred to each cell culture well. Each compound with the starting concentration for treatment of 100 nM in cells was subjected to 3-fold gradient dilution with 9 concentration points. A blank control containing 0.3% DMSO was set, and double replicate wells as controls were set at each concentration point. The culture was cultured in a 37° C., 5% CO2 cell incubator for 7 days, and the cell culture plate was taken out on day 8.

Row | SMILES | fraction unbound at 6 h, 1 µM [1] | IC50 [2] [nM]
1 | C[C@@H]1Cc2c([nH]c3ccccc23)C(c2c(F)cc(N[C@H]3CCN(CCCF)C3)cc2F)N1CC(F)(F)F (stereo in doubt) [Example 4, (S)-N-(3,5-difluoro-4-((1S,3R)-3-methyl-2-(2,2,2-trifluoroethyl)-2,3,4,9-tetrahydro-1H-pyridino[3,4-b]indol-1-yl)phenyl)-1-(3-fluoropropyl)pyrrolidin-3-amine] | 0.002 | 0.23
2 | C[C@@H]1Cc2c([nH]c3ccccc23)C(c2c(F)cc(N[C@H]3CCN(CCCF)C3)cc2F)N1CC(F)(F)CO (stereo in doubt) [Example 7, 3-((1S,3R)-1-(2,6-difluoro-4-(((S)-1-(3-fluoropropyl)pyrrolidin-3-yl)amino)phenyl)-3-methyl-3,4-dihydro-1H-pyridino [3,4-b]indole-2(9H)-yl)-2,2-difluoropropane-1-ol] | 0.012 | 0.12
3 | C[C@@H]1Cc2c([nH]c3ccccc23)[C@@H](c2ccc(N[C@H]3CCN(CCCF)C3)cn2)N1CC(F)(F)F [Example 3, N-((S)-1-(3-fluoropropyl)pyrrolidin-3-yl)-6-((1S,3R)-3-methyl-2-(2,2,2-trifluoroethyl)-2,3,4,9-tetrahydro-1H-pyridino[3,4-b]indol-1-yl)pyridine-3-amine] | 0.013 | 0.27
